What was measured:
Assay in all cases: relative viability (nuclei count vs DMSO), 5 days (fraction); higher = more cells survive
DM3189 + Foretinib = compound: C1CN(CCN1)C2=CC=C(C=C2)C3=CN4C(=C(C=N4)C5=CC=NC6=CC=CC=C56)N=C3 [DM3189] + COc1cc2c(Oc3ccc(NC(=O)C4(C(=O)Nc5ccc(F)cc5)CC4)cc3F)ccnc2cc1OCCCN1CCOCC1 [Foretinib] (partner 0.25 µM)
Procedure, shortened: (§1)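 One day after seeding in 1536-well plates, lung cancer cell lines were dosed by pin tool. Dosing was either single-drug or a fixed anchor-drug dose plus five library-drug doses (not always all listed) in √10 steps. After 5 days, nuclei were stained in one fix-and-stain step and counted on 4× images, and relative viability is the nuclei count of treated wells over that of vehicle wells, given as the median of duplicate plates.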

DM3189 + OSI-027 = compound: C1CN(CCN1)C2=CC=C(C=C2)C3=CN4C(=C(C=N4)C5=CC=NC6=CC=CC=C56)N=C3 [DM3189] + COc1cccc2cc(-c3nc([C@H]4CC[C@H](C(=O)O)CC4)n4ncnc(N)c34)[nH]c12 [OSI-027] (partner 0.5 µM)
Procedure, shortened: as §1

DM3189 + Tozasertib = compound: C1CN(CCN1)C2=CC=C(C=C2)C3=CN4C(=C(C=N4)C5=CC=NC6=CC=CC=C56)N=C3 [DM3189] + Cc1cc(Nc2cc(N3CCN(C)CC3)nc(Sc3ccc(NC(=O)C4CC4)cc3)n2)n[nH]1 [Tozasertib] (partner 0.1 µM)
Procedure, shortened: as §1

DM3189 + Navitoclax = compound: C1CN(CCN1)C2=CC=C(C=C2)C3=CN4C(=C(C=N4)C5=CC=NC6=CC=CC=C56)N=C3 [DM3189] + CC1(C)CCC(c2ccc(Cl)cc2)=C(CN2CCN(c3ccc(C(=O)NS(=O)(=O)c4ccc(N[C@H](CCN5CCOCC5)CSc5ccccc5)c(S(=O)(=O)C(F)(F)F)c4)cc3)CC2)C1 [Navitoclax] (partner 0.5 µM)
Procedure, shortened: as §1

DM3189 + Pemetrexed = compound: C1CN(CCN1)C2=CC=C(C=C2)C3=CN4C(=C(C=N4)C5=CC=NC6=CC=CC=C56)N=C3 [DM3189] + Nc1nc2[nH]cc(CCc3ccc(C(=O)N[C@@H](CCC(=O)O)C(=O)O)cc3)c2c(=O)[nH]1 [Pemetrexed] (partner 0.2 µM)
Procedure, shortened: as §1

Cell Line	relative viability (DM3189 + Foretinib; first compound 0.08 µM)	relative viability (DM3189 + Foretinib; first compound 0.253 µM)	relative viability (DM3189 + Foretinib; first compound 2.53 µM)	relative viability (DM3189 + OSI-027; first compound 0.08 µM)	relative viability (DM3189 + OSI-027; first compound 0.253 µM)	relative viability (DM3189 + OSI-027; first compound 2.53 µM)	relative viability (DM3189 + Tozasertib; first compound 0.08 µM)	relative viability (DM3189 + Tozasertib; first compound 0.253 µM)	relative viability (DM3189 + Tozasertib; first compound 2.53 µM)	relative viability (DM3189 + Navitoclax; first compound 0.08 µM)	relative viability (DM3189 + Navitoclax; first compound 0.253 µM)	relative viability (DM3189 + Navitoclax; first compound 0.8 µM)	relative viability (DM3189 + Navitoclax; first compound 2.53 µM)	relative viability (DM3189 + Pemetrexed; first compound 0.08 µM)	relative viability (DM3189 + Pemetrexed; first compound 0.253 µM)	relative viability (DM3189 + Pemetrexed; first compound 0.8 µM)	relative viability (DM3189 + Pemetrexed; first compound 2.53 µM)	relative viability (DM3189 + Foretinib; first compound 0.8 µM)	relative viability (DM3189 + OSI-027; first compound 0.8 µM)	relative viability (DM3189 + Tozasertib; first compound 0.8 µM)
HCC-366	0.939	0.975	0.936	0.888	0.856	0.808	0.133	0.0982	0.0984	0.955	1.06	0.842	1.04	0.139	0.166	0.116	0.149			
HCC-827	1.1	0.945	0.935	0.886	0.812	0.822	0.376	0.36	0.377	0.958	0.942	0.887	1.02	0.279	0.244	0.249	0.275	0.953	0.842	0.354
HOP-62	1.05	1.07	1.16	1.02	0.852	0.871	0.31	0.347	0.356	1.09	0.994	0.989	1.17	0.32	0.296	0.295	0.346	1.04	0.817	0.389
IA-LM	1.24	1.2	1.32							1.22	1.22	0.951	0.987					1.26		
LC-2-ad	1.08	0.926	0.992	0.801	0.784	0.87	0.461	0.396	0.482	0.59	0.532	0.435	0.358	0.259	0.253	0.257	0.276	0.931	0.726	0.474
LCLC-97TM1	0.877	0.857	0.747	0.563	0.304	0.396	0.229	0.171	0.188	0.291	0.243	0.39	0.519	0.182	0.17	0.136	0.167	0.765	0.397	0.182
LCLC-103H	0.847	0.761	0.702	0.513	0.435	0.41	0.502	0.453	0.408					0.514	0.407	0.431	0.469	0.718	0.442	0.461
LK-2	1.05	0.88	0.858	0.193	0.155	0.174	0.183	0.187	0.166	0.72	0.626	0.483	0.57	0.283	0.198	0.197	0.183	0.72	0.159	0.185
LOU-NH91	1.08	0.942	0.96	0.869	0.719	0.801	0.7	0.696	0.637	0.762	0.688	0.523	0.607	0.375	0.407	0.331	0.368	0.891	0.681	0.659
LU99A	0.82	0.731	0.661	0.293	0.299	0.308	0.284	0.242	0.307	0.828	0.787		0.83	0.185	0.233		0.161			
LXF-289	0.982	0.963	1.02	1.01	0.747	0.891	0.208	0.196	0.236	0.983	0.927	0.932	1.07	0.932	0.986	0.897	0.917	0.987	0.746	0.166
NCI-H358	0.733	0.607	0.61	1.02	0.722	0.488	0.12	0.0936	0.11					0.172	0.155	0.181	0.168	0.714	0.782	0.102
NCI-H522				0.796	0.695	0.828	0.602	0.582	0.494					0.992	0.898	0.767	0.873		0.685	0.552
NCI-H650	1.04	0.964	1.02	0.578	0.496	0.502	0.713	0.667	0.696					1.02	0.956	0.958	0.936	0.912	0.483	0.623
NCI-H661	1.14	0.954	1.19	0.772	0.669	0.584	0.36	0.346	0.336					1.03	0.861	0.955	0.884	1.02	0.709	0.351
NCI-H727	0.792	0.821	0.818	0.471	0.606	0.583	0.648	0.568	0.578	0.461	0.373		0.511					0.668	0.486	0.654
NCI-H1792				0.585	0.703	0.839				0.584	0.601	0.443	0.23	0.986	0.98	0.645	0.616		0.661	
SW 900	0.996	0.875	0.728	0.618	0.544	0.606	0.604	0.509	0.437					0.505		0.44	0.581	0.794	0.584	0.446

Source: the supplement of paper PMC10307832
